The test deals with T1, Androgen receptor (Homo sapiens, UniProt P10275).
T1 sequence (P10275 whole entry): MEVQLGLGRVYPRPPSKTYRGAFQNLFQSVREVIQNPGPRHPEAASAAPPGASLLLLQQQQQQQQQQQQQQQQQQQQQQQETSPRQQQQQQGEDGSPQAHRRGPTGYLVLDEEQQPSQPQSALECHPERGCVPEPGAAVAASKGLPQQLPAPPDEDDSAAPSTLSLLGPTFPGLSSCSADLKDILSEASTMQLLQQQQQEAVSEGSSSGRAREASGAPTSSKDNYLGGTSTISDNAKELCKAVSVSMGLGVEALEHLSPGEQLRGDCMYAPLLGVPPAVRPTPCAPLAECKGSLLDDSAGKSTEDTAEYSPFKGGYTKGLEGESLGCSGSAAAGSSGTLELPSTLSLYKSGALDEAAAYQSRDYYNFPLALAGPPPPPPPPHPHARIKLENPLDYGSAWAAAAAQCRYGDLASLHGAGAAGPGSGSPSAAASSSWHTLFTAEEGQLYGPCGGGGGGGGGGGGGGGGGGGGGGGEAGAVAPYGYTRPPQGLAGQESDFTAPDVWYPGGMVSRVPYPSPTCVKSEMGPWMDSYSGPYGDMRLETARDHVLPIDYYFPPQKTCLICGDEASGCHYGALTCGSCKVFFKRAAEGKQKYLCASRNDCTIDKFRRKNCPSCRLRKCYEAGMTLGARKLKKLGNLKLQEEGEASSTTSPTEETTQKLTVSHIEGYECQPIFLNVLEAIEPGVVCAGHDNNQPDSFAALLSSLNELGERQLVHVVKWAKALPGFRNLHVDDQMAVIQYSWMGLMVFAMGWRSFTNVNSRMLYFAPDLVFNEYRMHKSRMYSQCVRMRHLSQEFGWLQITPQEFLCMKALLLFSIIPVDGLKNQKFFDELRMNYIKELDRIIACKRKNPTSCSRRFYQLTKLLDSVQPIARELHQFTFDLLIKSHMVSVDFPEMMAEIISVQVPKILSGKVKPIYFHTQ
Put plainly: Binding Assay: The test was carried out as in 1., with the following modifications: cytosol from androgen receptor-expressing insect cells (Hi5) was used, and the reference substance was 3H-testosterone.The results of the binding tests and the ratio of the competition factors CF(PR) and CR(MR) are shown in Table 1, which for comparison also shows receptor binding values of drospirenone as ….

The IC50 is the concentration that inhibits the measured activity by half.

Take `CC[C@]12CC[C@H]3[C@@H](CC4(CC4)C4=CC(=O)CC[C@@H]43)[C@@H]1CC[C@@]21C=CC(=O)O1`: the IC50 came out at 42 nM.
With `C[C@]12CC[C@H]3[C@@H](CC4(CC4)C4=CC(=O)CC[C@@H]43)[C@@H]1CC[C@@]21C=CC(=O)O1`, the IC50 worked out at 37 nM.

Source of the values: ChEMBL document CHEMBL3639292, “17-hydroxy-19-nor-21-carboxylic acid-steroid Œ=-lactone derivative, use thereof, and medicament containing the derivative” (2015).
